pEC50: −log10 of the molar value.
Experiments:
Estrogen receptor beta [1] = target: T1, Estrogen receptor beta (Homo sapiens, UniProt Q92731); assay: Agonist activity in transcriptional activation assay in SH-SY5Y neuroblastoma cells expressing Estrogen receptor beta; assay type: functional, cell-based
Estrogen receptor [2] = target: T2, Estrogen receptor (Homo sapiens, UniProt P03372)
T2 sequence (P03372 whole entry): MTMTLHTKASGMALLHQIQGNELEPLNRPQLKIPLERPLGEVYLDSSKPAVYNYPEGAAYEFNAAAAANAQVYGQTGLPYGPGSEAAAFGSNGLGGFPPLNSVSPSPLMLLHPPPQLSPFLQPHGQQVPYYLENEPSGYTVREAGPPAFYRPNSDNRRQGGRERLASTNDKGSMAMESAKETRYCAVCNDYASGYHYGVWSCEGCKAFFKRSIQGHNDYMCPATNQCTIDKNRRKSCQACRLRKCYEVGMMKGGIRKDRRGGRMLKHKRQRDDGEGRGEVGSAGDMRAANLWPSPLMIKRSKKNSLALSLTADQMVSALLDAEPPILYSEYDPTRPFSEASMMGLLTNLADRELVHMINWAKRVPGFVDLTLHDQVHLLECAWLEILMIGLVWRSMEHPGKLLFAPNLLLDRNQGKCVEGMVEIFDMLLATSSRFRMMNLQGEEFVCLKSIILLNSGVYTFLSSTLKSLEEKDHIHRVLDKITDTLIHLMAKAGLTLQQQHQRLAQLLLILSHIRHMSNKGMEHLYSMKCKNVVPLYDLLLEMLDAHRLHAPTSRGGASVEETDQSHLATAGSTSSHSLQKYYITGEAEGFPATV
Description: Activation of estrogen response element in HeLa cells stably transfected with human Estrogen receptor alpha.

Estrogen receptor beta [3] = target: T1, Estrogen receptor beta
Description: Activation of estrogen response element in HeLa cells stably transfected with human Estrogen receptor beta.

Estrogen receptor [4] = target: T2, Estrogen receptor; remark: listed apart in the source
Description: Inhibition of [3H]17-beta-estradiol binding to human recombinant Estrogen receptor alpha.

Estrogen receptor beta [5] = target: T1, Estrogen receptor beta; remark: listed apart in the source
Description: Inhibition of [3H]17-beta-estradiol binding to human recombinant Estrogen receptor beta.

T1 sequence (Q92731 whole entry): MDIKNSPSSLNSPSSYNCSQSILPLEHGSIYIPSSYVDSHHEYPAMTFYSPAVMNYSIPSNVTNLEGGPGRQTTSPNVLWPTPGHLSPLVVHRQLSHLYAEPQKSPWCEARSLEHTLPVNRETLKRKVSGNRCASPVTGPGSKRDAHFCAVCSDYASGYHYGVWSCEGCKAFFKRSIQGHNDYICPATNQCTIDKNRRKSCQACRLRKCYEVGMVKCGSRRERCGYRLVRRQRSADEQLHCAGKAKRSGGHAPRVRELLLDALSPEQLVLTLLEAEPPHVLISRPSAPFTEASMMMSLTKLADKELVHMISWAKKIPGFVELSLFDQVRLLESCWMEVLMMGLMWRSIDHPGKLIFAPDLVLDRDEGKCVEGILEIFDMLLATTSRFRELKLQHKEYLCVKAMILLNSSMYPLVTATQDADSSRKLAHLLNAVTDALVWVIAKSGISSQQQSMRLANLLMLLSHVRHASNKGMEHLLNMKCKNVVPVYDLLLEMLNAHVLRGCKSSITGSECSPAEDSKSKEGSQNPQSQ

SMILES | pEC50 (Estrogen receptor beta [1]) | pEC50 (Estrogen receptor [2]) | pEC50 (Estrogen receptor beta [3]) | pEC50 (Estrogen receptor [4]) | pEC50 (Estrogen receptor beta [5])
Cc1ccc(-c2cc3ccc(O)cc3s2)cc1 | 6.92 | 6.75 | 6.76 | < 5.00 | < 5.00
CCCc1cc(-c2cc3ccc(O)cc3s2)ccc1O | 6.59 | 6.79 | 6.73 | < 5.00 | 5.40
CC(=O)c1cc(-c2cc3ccc(O)cc3s2)ccc1O | – | < 6.00 | < 6.00 | < 5.00 | < 5.00
Oc1cc(O)c2cc(-c3ccc(O)c(F)c3)sc2c1 | – | 6.00 | < 6.00 | < 5.00 | 5.13
CCc1cc(-c2cc3ccc(O)cc3s2)ccc1O | – | 6.72 | 6.59 | 5.13 | 5.33
Oc1ccc2cc(-c3ccc(O)c(F)c3)sc2c1 | 7.89 | 6.86 | 7.49 | 5.99 | 6.94
Cc1cc(-c2cc3c(O)cc(O)cc3s2)ccc1O | – | < 6.00 | < 6.00 | < 5.00 | < 5.00
Oc1ccc(-c2cc3ccc(O)cc3s2)cc1 [RALOXIFENE CORE] | 8.00 | – | 7.77 | – | 6.94
Cc1cc(O)ccc1-c1cc2ccc(O)cc2s1 | 7.80 | 7.32 | 7.82 | 6.47 | 6.89
Oc1ccc2cc(-c3ccccc3)sc2c1 | 7.16 | 6.68 | 6.78 | 5.43 | 5.37
Cc1cc(-c2cc3ccc(O)cc3s2)ccc1O | – | 6.83 | 6.52 | 5.44 | 5.74
Oc1cccc(-c2cc3ccc(O)cc3s2)c1 | – | 6.57 | 6.61 | 5.66 | 6.13
Oc1ccc2cc(-c3ccc(O)c(O)c3)sc2c1 | – | 6.44 | 6.28 | 5.30 | 6.60

Reference: ChEMBL document CHEMBL1135900, “Toward selective ERbeta agonists for central nervous system disorders: synthesis and characterization of aryl benzthiophenes” (J Med Chem, 2002)
